These results are taken from patent US9279134B2, “Methods for isolating bacteria” (DEINOVE, priority 2009, dated 2016).

One experiment has as its system indigenous microflora. As to the kind of experiment: Soil sample suspension maintained in presence of bleocin, growth of colonies. The class given is cell-based. Conditions: 50 μg/ml bleocin. As for the experimental part:
(§1) Soil samples containing Deinococcus radiopugnans strain DRH40 were placed in suspension under conditions similar to that of example 2. In place of irradiation, the suspensions were maintained in the absence (control) or presence of 50 μg/ml or 100 μg/ml of bleocin.

Experiment [1] concerns Deinococcus radiopugnans strain DRH40. The description is as above. The class given is cell-based. Conditions: 50 μg/ml bleocin. Here is the method:
as §1

On to bleocin, for which the “effect on indigenous microflora” value in the experiment with indigenous microflora is “decreases drastically”. Besides, in experiment [1], the “growing pink colonies (Deinococcus)” value is “pink colonies are present”.
